# Experimental data from patent publication US12600740B2, “Fluorinated N-acetyl glucosamine analogs and xylose derivatives” (UTI Limited Partnership, priority 2018, dated 2026).
# Entries after “also recorded” stand apart in the source; their conditions may differ. Counter-ions that a name gives are not always drawn.
# Experiments:
# [1] = system: oligodendrocyte precursor cells (OPCs); test: Growth of OPCs on astrocyte-secreted extracellular matrix; type: cell-based, mouse; settings: astrocytes treated 48 hours, then removed; OPCs plated on matrix
# Excerpt: The process of remyelination requires oligodendrocyte lineage cells to undergo process outgrowth prior to their expression of mature myelin proteins for repair. Thus, process outgrowth in culture by cells of the oligodendrocyte lineage has been used as one surrogate for myelinating potential in vivo [Keough, M. B.; Rogers, J. A.; Zhang, P.; Jensen, S. K.; Stephenson, E. L.; Chen, T.; Hurlbert, M. G.; Lau, L. W.; Rawji, K. S.; Plemel, J. R. et al. An inhibitor of chondroitin sulfate proteoglycan synthesis promotes central nervous system remyelination. Nat. Commun. 2016, 7, 11312], since an oligodendrocyte needs to elaborate multiple protrusions emanating in several directions to contact many axons, and where these processes then compact around axons to form myelin segments. The presence of CSPGs in culture impairs the process outgrowth of OPCs, and this has been linked to reduced remyelination capacity in vivo [Keough, M. B.; Rogers, J. A.; Zhang, P.; Jensen, S. K.; Stephenson, E. L.; Chen, T.; Hurlbert, M. G.; Lau, L. W.; Rawji, K. S.; Plemel, J. R. et al. An inhibitor of chondroitin sulfate proteoglycan synthesis promotes central nervous system remyelination. Nat. Commun. 2016, 7, 11312]. It was reported previously that astrocytes in culture produce a plate-bound matrix abundant in CSPGs, that is left behind once astrocytes are removed from the plate, and this CSPG-containing matrix inhibits the outgrowth of plated OPCs [Keough, M. B. et al. An inhibitor of chondroitin sulfate proteoglycan synthesis promotes central nervous system remyelination. Nature communications 7, 11312 (2016)] (FIG. 7a). Thus, astrocytes were treated with test compounds for 48 hours and they were then removed from the cell culture plate leaving only their secreted ECM behind (FIG. 7a). When OPCs were plated on the astrocyte matrix, the extent of their process outgrowth over […] of observation was inhibited (FIG. 7b). […] OPCs growing in the absence of astrocyte ECM can reach a mean outgrowth around 300 μm (FIG. 7b,c). […] These compounds were: Ac-4,4-diF-GlcNAc 16 (Ac-4,4-diF-GlcNAc), fluorosamine 3 and its O1-deacetylated analog 10 (Ac-4-F-GlcNAcOH), anomeric O-propanoate 7, anomeric O-butanoate 8 (Ac-4-F-GlcNAcOBu), and the 4-fluorinated GalNAc derivative 13 (Ac-4-F-GalNAc) (FIG. 7c).
# In brief, cortices from postnatal days 1-3 mouse brains were dissociated with papain digestion and then plated as a mixed culture for 7 days in a 37° C. incubator at 8.5% CO2 whereupon OPCs and microglia tended to be loosely attached on top of a monolayer of astrocytes; the OPCs and microglia were then shaken off when placed on an orbital shaker at 220 r.p.m. at 37° C. and 5% CO2 overnight. The media containing microglia and OPCs were collected and added to a 100 mm tissue culture dish and left at 37° C. and 5% CO2 for 30 min, to allow preferential adhesion of microglia. The media were collected again, now containing OPCs, and used as the OPC-enriched isolates for experiments. For the remaining adhered cells, largely astrocytes, these were removed with 0.25% trypsin and after centrifugation and washing, these astrocytes were plated at a density of 1.0×10^5 cells in flat bottom 96-well plates coated with 10 μg/ml poly-L-lysine. Cells were grown for 7 days at 37° C. and 5% CO2 in MGM and daily media changes. Astrocytes were carefully removed with EDTA treatment (0.2 g EDTA (Na4) per liter PBS, 30 minutes at 37° C. and 5% CO2) and mechanical dislodgement with a micropipetter. The remaining ECM left behind was covered with PBS at 4° C. until OPCs were seeded. Enriched OPCs from mixed glial cultures were seeded at a density of 5-10×10^4 cells per well in OPC media and grown at 37° C. and 8.5% CO2 for 18-24 h and then were fixed with 4% ice-cold paraformaldehyde at 4° C. for 10 min, rinsed with PBS, and stored at 4° C. until immunocytochemistry. […]
# [2] = system: CSPG production by astrocytes; test: Western blot of astrocyte conditioned medium, MAB2030 (chondroitin sulfate GAG stubs); type: cell-based, mouse; settings: astrocyte conditioned media, 50 μM, 48 hours
# Excerpt: Astrocytes are major producers of CSPGs following injury in the CNS [Jones, L. L., Margolis, R. U. & Tuszynski, M. H. The chondroitin sulfate proteoglycans neurocan, brevican, phosphacan, and versican are differentially regulated following spinal cord injury. Experimental Neurology 182, 399-411 (2003); Tang, X., Davies, J. E. & Davies, S. J. Changes in distribution, cell associations, and protein expression levels of NG2, neurocan, phosphacan, brevican, versican V2, and tenascin-C during acute to chronic maturation of spinal cord scar tissue. […] The Journal of neuroscience: the official journal of the Society for Neuroscience 20, 2427-2438 (2000); McKeon, R. J., Jurynec, M. J. & Buck, C. R. The chondroitin sulfate proteoglycans neurocan and phosphacan are expressed by reactive astrocytes in the chronic CNS glial scar. The Journal of neuroscience: the official journal of the Society for Neuroscience 19, 10778-10788 (1999); Haas, C. A., Rauch, U., Thon, N., Merten, T. & Deller, T. Entorhinal cortex lesion in adult rats induces the expression of the neuronal chondroitin sulfate proteoglycan neurocan in reactive astrocytes. The Journal of neuroscience: the official journal of the Society for Neuroscience 19, 9953-9963 (1999)] and they may help drive progression of disability in a model of progressive MS [Mayo, L. et al. Regulation of astrocyte activation by glycolipids drives chronic CNS inflammation. Nature medicine 20, 1147-1156 (2014)]. Therefore astrocytes were used as model cells to determine the ability of the sugar analogs to reduce synthesis of CSPGs. Since CSPGs are exported out of cells, the conditioned media from analog-treated astrocytes were probed by Western blots (FIG. 4). We used antibodies to both the stubs of chondroitin sulfate GAGs attached to the core protein (MAB2030) and to intact 4-sulfated chondroitin sulfate sidechains (2H6) (FIG. 4a). Particularly, we used the 2H6 antibody to label intact 4-sulfated chondroitin sulfate sidechains, and the MAB2030 antibody to detect the stubs of chondroitin sulfate GAGs attached to the core protein. […] 1998, 160 (8), 3812-3819. Poole Poole C. A.; Glant T. T.; Schofield J. R.; Chondrons from articular cartilage. (IV). Immunolocalization of proteoglycan epitopes in isolated canine tibial chondrons. J. Histochem. Cytochem. 1991, 39 (9), 1175-1187].
# Astrocytes were plated in uncoated 6-well plates (3 replicate wells per treatment) at 1×10^6 cells/well in mixed glial media, and incubated at 5% CO2 and 37° C. Astrocytes were treated with compounds at 50 μM in AIM-V media for 48 hours. Media was pooled from 3 replicate wells in 15 ml 100K cutoff centricon tubes (EMD Millipore, #UFC905008), which were spun on an ultracentrifuge at 5000× g for 2 cycles of 10 minutes each. When harvested, the cell lysate was kept on ice for 5 minutes with 250 μL of RIPA buffer (ThermoFisher Scientific #89900) containing proteinase inhibitor, and then collected and centrifuged at 14000 g for 5 minutes. Total protein was quantified using a Bradford assay. Conditioned media that were to be probed for chondroitin 4-sulfate GAGs (Millipore, #MAB2030) were first digested with 0.2 U/ml chondroitinase ABC for overnight at 37° C. to remove chondroitin sulfate sidechains. Blots that were to be probed with CSA (2H6, Cosmo) or CS56 (Abcam #ab11570) were not exposed to chondroitinase ABC. Samples were heat denatured with NuPAGE® LDS Sample buffer at 70° C. for 10 minutes and then loaded into 3-8% tris-acetate pre-cast gels (ThermoFisher, #EA0478BOX). The gels were electrophoresed at a constant 150 V for 90 minutes and transferred to a […] polyvinylidene fluoride membrane at a constant 250 mA for 60 minutes. The membranes were blocked for one hour with 10% skim milk in Tris-buffered saline (TBS; 0.9% NaCl, 10 mM Tris-HCl, pH 7.5) containing 0.5% Tween 20 (TBS-T). Primary antibodies were added in 3% skim milk and incubated overnight at 4° C. […]
# TNFα = TNFα ELISA of LPS-stimulated bone marrow-derived macrophages; type: cell-based, mouse; settings: BMDMs, 50 μM, LPS 100 ng/ml, 24 hours
# Procedure: Multiple Sclerosis: Mechanisms and Immunotherapy. Neuron 97, 742-768 (2018)]. It was tested whether the sugar analogs could affect the activity of macrophages, using bone marrow-derived macrophages (BMDMs) stimulated with lipopolysaccharide (LPS, 100 ng/ml). The sugar analogs were added at 50 μM prior to LPS, and the conditioned medium was collected after 24 hours and assayed for levels of the secreted cytokine TNFα. […] Testing Toxicity of Sugar Analogs
# Femurs were carefully removed from euthanized female C57BI/6 mice, and marrow was flushed into a culture plate with cold complete bone marrow growth medium (DMEM, 10% fetal bovine serum, and the supplements 1% penicillin/streptomycin, 1% glutamine, 1% non-essential amino acids, and 10% supernatant from L929 cell-line enriched in macrophage-colony stimulating factor). Cells were spun at 1100 rpm for 10 minutes, resuspended in fresh growth medium and plated at 10×10^6 cells/ml in a 10 cm culture dish. Cells were grown in DMEM with supplements and L929 supernatant for 5 days, then half the medium was replaced with fresh growth medium. On day 7 growth medium was replaced with DMEM with 10% FBS and supplements. Cells were used on day 8, and experiments were conducted in DMEM with 1% FBS and supplements unless otherwise specified.
# BMDM were plated at 25,000 cells in 96-well plates in DMEM+L929 media. After 24 hours media was changed to DMEM+1% FBS. One hour later, cells were treated with […] compounds or PBS. After 1 hour LPS (final concentration 100 ng/ml) was added. Following 24 hours, conditioned media was harvested for TNFα ELISA (Thermo Scientific), which was performed according to manufacturer's instructions.
# mouse astrocytes = test: Propidium iodide/calcein AM toxicity on astrocytes; type: cell-based; settings: 100 μM, 48 hours
# Procedure: Toxicity on astrocytes was assayed with propidium iodide/calcein AM […]. Live cells convert calcein AM into a green fluorescent product, whereas dying/dead cells are stained with propidium iodide.
# 96-well plates were imaged with ImageXpress® Micro Cellular Imaging and Analysis System (Molecular Devices, Sunnyvale, CA). Twelve images per well were collected at ×10 magnification. Images were processed with MetaXpress analysis software. OPC outgrowth was calculated by the MetaExpress® “neurite outgrowth” software module which uses fluorescence and user-modified parameters to document the overall extent of processes emanating from the cell soma, regardless of size of the protrusions or the number of branches. This was previously detailed elsewhere [Cua, R. C.; Lau, L. W.; Keough, M. B.; Midha, R.; Apte, S. S.; and Yong, V. W. Overcoming neurite-inhibitory chondroitin sulfate proteoglycans in the astrocyte matrix. Glia 2013, 61 (6), 972-84]. Live-dead cell assay was calculated with MetaXpress analysis software with the “multiwavelength cell scoring”, which uses fluorescent intensity to measure co-localization of calcein AM, propidium iodide, and […]. Data from the 12 images were averaged to a single data point per well, wherein the OPC outgrowth data calculated from the MetaExpress® “neurite outgrowth” readout was divided by data from the same 12 fields of cell number that was acquired through the multiwavelength cell scoring. This provided mean outgrowth per cell per well, with four well replicates per treatment. Experiments were repeated at least twice.
# A mixture was created containing propidium iodide (10 μg/ml) to stain dead cells, 10 μM Calcein AM (ThermoFisher, #C3100MP) to identify live cells, and 2 drops per ml of media of NucBlue™ Live ReadyProbes™ Reagent (ThermoFisher, #R37605) to identify nuclei. The mixture was added to plate media and incubated for 20-30 minutes at 37° C. and 5% CO2 before imaging. Excitation/emission of calcein-AM (λex 490 nm, λem 515 nm), propidium iodide (λex 535 nm, λem 617 nm), and nuclear blue (λex 350 nm, λem 461 nm) was performed using ImageXpress® Micro Cellular Imaging and Analysis System (Molecular Devices, Sunnyvale, CA) and analyzed by MetaExpress multiwavelength cell scoring program.
SMILES,mean process outgrowth of OPCs on astrocyte ECM [1],effect on CSPG production by astrocytes [2],effect on CSPG production by astrocytes ([2]; sodium salt),TNFα production by LPS-stimulated macrophages (TNFα),toxicity on astrocytes (propidium iodide/calcein AM) (mouse astrocytes)
"CC(=O)NC1C(OC(C)=O)OC(C(F)F)[C@@H](OC(C)=O)C1OC(C)=O (stereo in doubt) [Compound 18, 2-acetamido-1,3,4-tri-O-acetyl-2,6-dideoxy-6,6-difluoro-α/β-D-glucopyranose]",significantly enhanced OPC outgrowth,did not decrease CSPG production in astrocytes,,,
"CC(=O)O[C@@H]1[C@@H](OC(C)=O)[C@H](OCCCCCCS(=O)(=O)O)OC[C@H]1OC(C)=O [Compound 23, 6-Sulfohexyl 2,3,4-tri-O-acetyl-β-D-xylopyranoside, sodium salt]",significantly enhanced OPC outgrowth,,CSPG production was not impacted; also recorded: did not decrease CSPG production in astrocytes,,
"CC(=O)O[C@H]1OC[C@@H](F)[C@H](OC(C)=O)[C@H]1OC(C)=O [Compound 27, 1,2,3-Tri-O-acetyl-4-deoxy-4-fluoro-α-D-xylopyranose]",,did not reduce CSPG production,,enhanced TNFα levels,
"OO [Compound H2O2, reference compound]",,,,,caused a significant increase in toxicity; also recorded: caused increase in propidium iodide-positive staining
